Data published in US8642065B2, “Osteogenic promoting implants and methods of inducing bone growth” (DePuy Synthes Products, LLC, priority 2011, dated 2014).
Read-outs that look alike come from different tables or passages of the source. One block for each molecule: values may come before it.

Columns and labels:
[1] = Excipient testing at variable pH levels: solubility; format: physicochemical
Experimental: The goal of these experiments was to increase the solubility of the compound such that increased doses could be added to material scaffolds. In a set of experiments, the solubility of clobetasol propionate and fluticasone propionate were evaluated at three distinct pH levels with a series of excipients. Phosphate buffered solutions were prepared at pH levels 3 (Low), and 7 (Medium), and a Tris buffered solution was prepared at pH level 9 (High). Solubility of the compound in the presence of a given excipient was measured at the individual pH levels as a fold increase over the solubility of the compound with no excipient present. Data regarding the solubility of clobetasol propionate in combination with the excipients is given below in Table 3. Data regarding the solubility of fluticasone propionate in combination with the excipients is given below in Table 4.

[2] = test system: primary human mesenchymal stem cells (MSCs); experiment: Osteoinductive (OI) alkaline phosphatase (ALP) assay, dose response, ALP normalised to DNA; format: cell-based
Source text: (§1) Samples from several classes of small molecule compounds including, corticosteroids, glucocorticoids, oxysterols, compounds that impact the HMG coA reductase pathway and compounds that upregulate intracellular cAMP were screened for osteoinductive potential with an alkaline phosphatase (ALP) assay in primary human mesenchymal stem cells (MSCs). Sample compounds were screened over a dose range in a multiwell plate format using DNA to normalize the ALP response as a function of cell number. These dose response curves allowed for the determination of an EC50 to measure relative potency of the osteogenic response between compounds. FIG. 1 is a representative dose response curve for two of the corticosteroid compounds tested, clobetasol propionate and dexamethasone. In addition to the functional analysis, certain identified compounds were run through an in vitro L929 cytotoxicity assay to determine a CC50.

MSCs [3] = experiment: Relative potency: ALP assay after short exposure times, then basal media to assay completion; format: cell-based, human; conditions: for EC50: MSCs, then basal media
Experimental: One part of this technology may involve coating an osteoconductive scaffold with an osteoinductive small molecule compound to thereby deliver the compound locally when the scaffold is implanted. Consequently, the optimal time and concentration profile required for the compound to remain at the site in order to influence an osteogenic outcome was determined. Initially, potency was determined by looking at exposure over 6 days. In order to better understand the optimal exposure profile, MSCs were treated over a series of dose ranges for exposure times starting at 1 hour out to 4 days, after which the compound treated media was removed and the cells were allowed to continue to assay completion under basal media conditions. This allowed for the determination of the relative potency of the compounds over short exposure periods and gave an indication of the release requirements that would be necessary to achieve the desired osteogenic outcome.
FIG. 2 is a representative relative potency graph of a corticosteroid, fluticasone propionate, based on the results shown in Table 2.

MSCs [4] = experiment: In vitro 3-D efficacy: ALP RNA expression in MSCs seeded on coated Scaffold I; format: cell-based; conditions: compound precoated on Scaffold I, MSCs cultured three days, versus basal conditions
Experimental: The osteoinductive potential of selected small molecule compounds were determined in vitro by seeding MSCs onto a three dimensional b-TCP polymer composite scaffold, Scaffold I, which had been coated with selected compounds prior to seeding. These cells were allowed to culture for a period of time after which they were assayed for alkaline phosphatase (ALP) RNA content, an early marker of osteogenic differentiation. FIG. 7 is a graphical illustration showing the amount of ALP RNA expression in the MSCs, expressed as a fold increase over basal conditions (standard culture conditions). In this example, dexamethasone (a control for the assay) was added to the culture media in solution whereas in all other cases the compounds were precoated on to Scaffold I followed by addition of the MSCs. The cells were then cultured for three days and assayed for their level of osteogenic response via ALP RNA expression.

L929 = experiment: In vitro L929 cytotoxicity assay (CTG); format: cell-based; conditions: L929 cells; read-out: Cytotox (CTG) CC50
Source text: as §1

15 mm radial defect = experiment: In vivo study in rabbit radial defect model, radiographs; conditions: Scaffold I coated intraoperatively plus autogenic bone marrow, three weeks post op
Experimental: An evaluation of two small molecule compounds, dexamethasone and 20S-hydroxycholesterol, was performed in the rabbit radial defect model. Scaffold I was coated with the compounds intraoperatively, combined with autogenic bone marrow, and implanted in a 15 mm radial defect. Radiographs were taken at 3 and 6 weeks post-operatively, after which the animals were sacrificed and explants analyzed by micro CT.

[5] = primary human MSCs, exposure over 6 days, read-out: OI Assay (ALP) EC50

solubility, fold increase over no excipient ([1]; excipient Captisol, pH 3 (Low), phosphate buffered): 55.01 fold | solubility, fold increase over no excipient ([1]; excipient Captisol, pH 7 (Med), phosphate buffered): 80.81 fold | solubility, fold increase over no excipient ([1]; excipient Captisol, pH 9 (High), Tris buffered): 67.60 fold | solubility, fold increase over no excipient ([1]; excipient Cremophor_EL, pH 3 (Low), phosphate buffered): 94.00 fold | solubility, fold increase over no excipient ([1]; excipient Cremophor_EL, pH 7 (Med), phosphate buffered): 138.82 fold | solubility, fold increase over no excipient ([1]; excipient Cremophor_EL, pH 9 (High), Tris buffered): 89.92 fold | solubility, fold increase over no excipient ([1]; excipient DMA, pH 3 (Low), phosphate buffered): 6.67 fold | solubility, fold increase over no excipient ([1]; excipient DMA, pH 7 (Med), phosphate buffered): 8.41 fold | solubility, fold increase over no excipient ([1]; excipient DMA, pH 9 (High), Tris buffered): 7.07 fold | solubility, fold increase over no excipient ([1]; excipient DMSO, pH 3 (Low), phosphate buffered): 1.79 fold | solubility, fold increase over no excipient ([1]; excipient DMSO, pH 7 (Med), phosphate buffered): 1.96 fold | solubility, fold increase over no excipient ([1]; excipient DMSO, pH 9 (High), Tris buffered): 1.84 fold | solubility, fold increase over no excipient ([1]; excipient Dimethyl_isosorbide, pH 3 (Low), phosphate buffered): 4.14 fold | solubility, fold increase over no excipient ([1]; excipient Dimethyl_isosorbide, pH 7 (Med), phosphate buffered): 5.78 fold | solubility, fold increase over no excipient ([1]; excipient Dimethyl_isosorbide, pH 9 (High), Tris buffered): 5.01 fold | solubility, fold increase over no excipient ([1]; excipient Labrasol, pH 3 (Low), phosphate buffered): 54.03 fold | solubility, fold increase over no excipient ([1]; excipient Labrasol, pH 7 (Med), phosphate buffered): 85.96 fold | solubility, fold increase over no excipient ([1]; excipient Labrasol, pH 9 (High), Tris buffered): 79.23 fold | solubility, fold increase over no excipient ([1]; excipient NMP, pH 3 (Low), phosphate buffered): 6.39 fold | solubility, fold increase over no excipient ([1]; excipient NMP, pH 7 (Med), phosphate buffered): 9.02 fold | solubility, fold increase over no excipient ([1]; excipient NMP, pH 9 (High), Tris buffered): 7.96 fold | solubility, fold increase over no excipient ([1]; excipient PEG400, pH 3 (Low), phosphate buffered): 3.22 fold | solubility, fold increase over no excipient ([1]; excipient PEG400, pH 7 (Med), phosphate buffered): 4.32 fold | solubility, fold increase over no excipient ([1]; excipient PEG400, pH 9 (High), Tris buffered): 3.55 fold | solubility, fold increase over no excipient ([1]; excipient PVP, pH 3 (Low), phosphate buffered): 2.21 fold | solubility, fold increase over no excipient ([1]; excipient PVP, pH 7 (Med), phosphate buffered): 3.98 fold | solubility, fold increase over no excipient ([1]; excipient PVP, pH 9 (High), Tris buffered): 2.73 fold | solubility, fold increase over no excipient ([1]; excipient Propylene_glycol, pH 3 (Low), phosphate buffered): 5.63 fold | solubility, fold increase over no excipient ([1]; excipient Propylene_glycol, pH 7 (Med), phosphate buffered): 7.89 fold | solubility, fold increase over no excipient ([1]; excipient Propylene_glycol, pH 9 (High), Tris buffered): 5.90 fold | solubility, fold increase over no excipient ([1]; excipient Solutol_HS_15, pH 3 (Low), phosphate buffered): 3.82 fold | solubility, fold increase over no excipient ([1]; excipient Solutol_HS_15, pH 7 (Med), phosphate buffered): 5.00 fold | solubility, fold increase over no excipient ([1]; excipient Solutol_HS_15, pH 9 (High), Tris buffered): 4.47 fold | solubility, fold increase over no excipient ([1]; excipient Tweens, pH 3 (Low), phosphate buffered): 194.37 fold | solubility, fold increase over no excipient ([1]; excipient Tweens, pH 7 (Med), phosphate buffered): 272.98 fold | solubility, fold increase over no excipient ([1]; excipient Tweens, pH 9 (High), Tris buffered): 231.06 fold | EC50 (MSCs [3]; 1 hr exposure, read-out: EC50 1 hr.): 0.194 nM | EC50 (MSCs [3]; 4 hr exposure, read-out: EC50 4 hr.): 0.0422 nM | EC50 (MSCs [3]; 24 hr exposure, read-out: EC50 24 hr.): 0.0676 nM | EC50 (MSCs [3]; 72 hr exposure, read-out: EC50 72 hr): 0.0042 nM
SMILES: CCC(=O)O[C@]1(C(=O)SCF)[C@H](C)C[C@H]2[C@@H]3C[C@H](F)C4=CC(=O)C=C[C@]4(C)[C@@]3(F)[C@@H](O)C[C@@]21C [Fluticasone propionate]
EC50 ([2]; MSCs, 6 days exposure, read-out: EC50 6 days): 0.0065 nM | EC50 [2, 5]: 0.0065 nM | Max Osteogenic Response (MSCs [3]; time range to reach the full response of the ALP assay control (dexamethasone at 10 nM for 6 days)): 48 to 72 h | ALP RNA expression (osteogenic differentiation of MSCs) (MSCs [4]): upregulated osteogenic differentiation of MSCs significantly | CC50 (L929): > 1000 nM

SMILES: CC(C)CCC[C@](C)(O)[C@H]1CC[C@H]2[C@@H]3CC=C4C[C@@H](O)CC[C@]4(C)[C@H]3CC[C@@]21C [20a-hydroxy-cholesterol]
radiographs, periosteal response (15 mm radial defect): appeared to have an enhanced periosteal response | EC50 [2, 5]: > 12000 nM | CC50 (L929): > 12000 nM
